Test results published in patent publication US20240368181A1, “QUINOXALINE DERIVATIVES AND USES THEREOF” (Black Diamond Therapeutics, Inc., priority 2021, published 2024).

Assays:
Type in all cases: cell-based
[1] = tested on: UM-UC-14 (FGFR3-S249C) cells; experiment: cell proliferation assay (CellTiterGlo), UM-UC-14 cells; conditions: UMUC14, 72 h
Method in brief: (§1)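 IC50 for growth inhibition, normalized to DMSO-treated cells as viable. Cell number was estimated from ATP luminescence (CellTiterGlo) following incubation with compound at varying concentrations.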

[2] = tested on: DMS-114 (FGFR1 overexpression) cells; experiment: cell proliferation assay (CellTiterGlo), DMS-114 cells; conditions: Homo sapiens, DMS-114, 72 h
Method in brief: as §1

[3] = tested on: RT-112 (FGFR3-Tacc3 fusion) cells; experiment: cell proliferation assay (CellTiterGlo), RT-112 cells; conditions: Homo sapiens, RT-112, RT112 cells, 72 hours
Method in brief: as §1

[4] = tested on: SNU-16 (FGFR2-amplification) cells; experiment: cell proliferation assay (CellTiterGlo), SNU-16 cells; conditions: Homo sapiens, 72 hours
Method in brief: as §1

| Structure (SMILES) | IC50 [4] [µM] | IC50 [1] [µM] | IC50 [2] [µM] | IC50 [3] [µM] |
| --- | --- | --- | --- | --- |
| Cc1nc2ccc(Oc3ccc4ncc(-c5cnn(CC6CC7CC6CO7)c5)nc4c3Cl)cc2[nH]1 (stereo not drawn) [Compound 241] | 0.02 to 0.1 | 0.02 to 0.1 | 0.1 to 0.4 | < 0.02 |
| Cc1nc2ccc(Oc3ccc4ncc(-c5cnn(C6CC(=O)C6)c5)nc4c3Cl)cc2[nH]1 [Compound 242] | 0.02 to 0.1 | 0.02 to 0.1 | ≥ 0.4 | 0.02 to 0.1 |
| Cc1nc2ccc(Oc3ccc4ncc(-c5cnn(CC6CC(F)(F)C6)c5)nc4c3Br)cc2[nH]1 [Compound 243] | 0.02 to 0.1 | 0.02 to 0.1 | ≥ 0.4 | 0.02 to 0.1 |
| Cc1nc2ccc(Oc3ccc4ncc(-c5cnn(C6CC(N7CCC7)C6)c5)nc4c3Cl)cc2[nH]1 (stereo not drawn) [Compound 244] | 0.1 to 0.4 | 0.02 to 0.1 | ≥ 0.4 | 0.02 to 0.1 |
| Cc1nc2ccc(Oc3ccc4ncc(-c5cnn(CC6COCCN6)c5)nc4c3Cl)cc2[nH]1 (stereo not drawn) [Compound 246] | 0.02 to 0.1 | 0.02 to 0.1 | ≥ 0.4 | 0.02 to 0.1 |
| Cc1nc2cc(F)c(Oc3ccc4ncc(-c5cnn(CCO)c5)nc4c3Cl)cc2[nH]1 [Compound 247] | 0.02 to 0.1 | 0.02 to 0.1 | ≥ 0.4 | 0.02 to 0.1 |
| Cc1nc2cc(Oc3ccc4ncc(-c5cnn(CC6(O)CCN(C7COC7)CC6)c5)nc4c3Cl)ccc2[nH]1 [Compound 248] | 0.02 to 0.1 | 0.02 to 0.1 | 0.1 to 0.4 | 0.02 to 0.1 |
| Cc1nc2ccc(Oc3ccc4ncc(-c5cnn(C6CCNC(C)(C)C6)c5)nc4c3Cl)cc2[nH]1 (stereo not drawn) [Compound 249] | 0.02 to 0.1 | 0.02 to 0.1 | ≥ 0.4 | 0.02 to 0.1 |
| Cc1nc2ccc(Oc3ccc4ncc(-c5cnn(C6CC(C)(O)C6)c5)nc4c3Cl)cc2[nH]1 (stereo not drawn) [Compound 250] | < 0.02 | 0.02 to 0.1 | ≥ 0.4 | < 0.02 |
| Cc1nc2ccc(Oc3ccc4ncc(-c5cnn(CCN6CC(F)(F)C6)c5)nc4c3Cl)cc2[nH]1 [Compound 251] | 0.02 to 0.1 | 0.02 to 0.1 | ≥ 0.4 | 0.02 to 0.1 |
| Cc1nc2ccc(Oc3ccc4ncc(-c5cnn(CCN6CCC(F)(F)C6)c5)nc4c3Cl)cc2[nH]1 [Compound 252] | 0.02 to 0.1 | 0.02 to 0.1 | ≥ 0.4 | 0.02 to 0.1 |
| Cc1nc2ccc(Oc3ccc4ncc(-c5cnn(CC6(F)CC6)c5)nc4c3Cl)cc2[nH]1 [Compound 253] | 0.1 to 0.4 | 0.1 to 0.4 | ≥ 0.4 | 0.1 to 0.4 |
| Cc1nc2ccc(Oc3ccc4ncc(-c5cnn(C6CN(CC#N)C6)c5)nc4c3Cl)cc2[nH]1 [Compound 254] | 0.02 to 0.1 | 0.02 to 0.1 | ≥ 0.4 | 0.02 to 0.1 |
| Cc1nc2ccc(Oc3ccc4ncc(-c5cnn(C(C)(C)CC#N)c5)nc4c3Cl)cc2[nH]1 [Compound 255] | 0.02 to 0.1 | 0.02 to 0.1 | ≥ 0.4 | 0.02 to 0.1 |
| Cc1nc2ccc(Oc3ccc4ncc(-c5cnn(C6CC7(CNC7)C6)c5)nc4c3Cl)cc2[nH]1 [Compound 256] | 0.1 to 0.4 | 0.1 to 0.4 | ≥ 0.4 | 0.1 to 0.4 |
| Cc1nc2ccc(Oc3ccc4ncc(-c5cnn(C6CC(O)C6)c5)nc4c3Cl)cc2[nH]1 (stereo not drawn) [Compound 258] | 0.02 to 0.1 | 0.02 to 0.1 | ≥ 0.4 | 0.02 to 0.1 |

| Structure (SMILES) | IC50 [4] [µM] | IC50 [1] [µM] | IC50 [2] [µM] | IC50 [3] [µM] |
| --- | --- | --- | --- | --- |
| Cc1nc2ccc(Oc3ccc4ncc(-c5cnn(CC6(O)CC6)c5)nc4c3Cl)cc2[nH]1 [Compound 259] | 0.02 to 0.1 | 0.02 to 0.1 | ≥ 0.4 | 0.02 to 0.1 |
| Cc1nc2ccc(Oc3ccc4ncc(-c5cnn([C@H]6CCN(CC(F)(F)F)C[C@@H]6F)c5)nc4c3Cl)cc2[nH]1 [Compound 262] | 0.02 to 0.1 | 0.1 to 0.4 | ≥ 0.4 | 0.02 to 0.1 |
| Cc1nc2ccc(Oc3ccc4ncc(-c5cnn(C6CCNCC6)c5C)nc4c3Cl)cc2[nH]1 [Compound 263] | 0.1 to 0.4 | 0.1 to 0.4 | ≥ 0.4 | 0.1 to 0.4 |
| Cc1nc2ccc(Oc3ccc4ncc(-c5cn(C6CCNCC6)nc5C)nc4c3Cl)cc2[nH]1 [Compound 264] | 0.02 to 0.1 | 0.02 to 0.1 | 0.1 to 0.4 | 0.02 to 0.1 |
| Cc1nc2ccc(Oc3ccc4ncc(-c5cnn(C6CC(N7CC(F)(F)C7)C6)c5)nc4c3Cl)cc2[nH]1 (stereo not drawn) [Compound 265] | 0.02 to 0.1 | 0.02 to 0.1 | 0.1 to 0.4 | 0.02 to 0.1 |
| Cc1nc2cc(Oc3ccc4ncc(-c5cnn(CC6CC(F)(F)C6)c5)nc4c3Cl)cc(F)c2[nH]1 [Compound 266] | 0.1 to 0.4 | 0.1 to 0.4 | ≥ 0.4 | 0.1 to 0.4 |
| Cc1nc2ccc(Oc3ccc4ncc(-c5cnn(CCO)c5)nc4c3Cl)c(F)c2[nH]1 [Compound 268] | 0.02 to 0.1 | 0.02 to 0.1 | ≥ 0.4 | 0.02 to 0.1 |
| Cc1nc2ccc(Oc3ccc4ncc(-c5cnn(CC(=O)O)c5)nc4c3Cl)cc2[nH]1 [Compound 269] | ≥ 0.4 | ≥ 0.4 | ≥ 0.4 | ≥ 0.4 |
| Cc1nc2ccc(Oc3ccc4ncc(-c5cnn(CC(C)(C)C#N)c5)nc4c3Cl)cc2[nH]1 [Compound 272] | 0.02 to 0.1 | 0.02 to 0.1 | ≥ 0.4 | 0.02 to 0.1 |
| Cc1nc2ccc(Oc3ccc4ncc(-c5cnn(CC(C)(C)C(N)=O)c5)nc4c3Cl)cc2[nH]1 [Compound 274] | 0.02 to 0.1 | 0.02 to 0.1 | ≥ 0.4 | 0.02 to 0.1 |
| Cc1nc2ccc(Oc3ccc4ncc(-c5cnn(CC6CC(F)(F)C6)c5C)nc4c3Cl)cc2[nH]1 [Compound 275] | ≥ 0.4 | 0.1 to 0.4 | ≥ 0.4 | ≥ 0.4 |
| Cc1nc2ccc(Oc3ccc4ncc(-c5cn(CC6CC(F)(F)C6)nc5C)nc4c3Cl)cc2[nH]1 [Compound 276] | 0.1 to 0.4 | 0.1 to 0.4 | ≥ 0.4 | 0.02 to 0.1 |
| Cc1nc2ccc(Oc3ccc4ncc(-c5cnn(CCC6CCS(=O)(=O)C6)c5)nc4c3Br)cc2[nH]1 (stereo not drawn) [Compound 278] | < 0.02 | < 0.02 | ≥ 0.4 | < 0.02 |
| Cc1nc2ccc(Oc3ccc4ncc(-c5cnn(CC(C)(C)O)c5)nc4c3Cl)cc2[nH]1 [Compound 280] | 0.02 to 0.1 | 0.02 to 0.1 | ≥ 0.4 | 0.02 to 0.1 |
| Cc1nc2ccc(Oc3ccc4ncc(-c5cnn(C(C)(C)CC(N)=O)c5)nc4c3Cl)cc2[nH]1 [Compound 282] | 0.02 to 0.1 | 0.1 to 0.4 | ≥ 0.4 | 0.02 to 0.1 |

Second part, led by results:

| IC50 [4] [µM] | Structure (SMILES) | IC50 [1] [µM] | IC50 [2] [µM] | IC50 [3] [µM] |
| --- | --- | --- | --- | --- |
| ≥ 0.4 | Cc1nc2ccc(Oc3ccc4ncc(-c5cnn(CCN6CCC6)c5)nc4c3Cl)cc2[nH]1 [Compound 239] | ≥ 0.4 | ≥ 0.4 | ≥ 0.4 |
| 0.02 to 0.1 | Cc1nc2ccc(Oc3ccc4ncc(-c5cnn(CC6CCN(C)S(=O)(=O)C6)c5)nc4c3Cl)cc2[nH]1 (stereo not drawn) [Compound 240] | 0.02 to 0.1 | 0.1 to 0.4 | 0.02 to 0.1 |
| 0.02 to 0.1 | Cc1nc2ccc(Oc3ccc4ncc(-c5cnn(CC6COCCN6C)c5)nc4c3Cl)cc2[nH]1 (stereo not drawn) [Compound 245] | 0.02 to 0.1 | ≥ 0.4 | 0.02 to 0.1 |
| < 0.02 | Cc1nc2ccc(Oc3ccc4ncc(-c5cnn(CC6CC(C)(O)C6)c5)nc4c3Cl)cc2[nH]1 (stereo not drawn) [Compound 257] | 0.02 to 0.1 | 0.1 to 0.4 | < 0.02 |
| 0.02 to 0.1 | COC1CCN(CCn2cc(-c3cnc4ccc(Oc5ccc6nc(C)[nH]c6c5)c(Cl)c4n3)cn2)C1 (stereo not drawn) [Compound 260] | 0.02 to 0.1 | 0.1 to 0.4 | 0.02 to 0.1 |
| 0.02 to 0.1 | Cc1nc2ccc(Oc3ccc4ncc(-c5cnn(CCN6CCC(O)C6)c5)nc4c3Cl)cc2[nH]1 (stereo not drawn) [Compound 267] | 0.02 to 0.1 | ≥ 0.4 | 0.02 to 0.1 |
| 0.1 to 0.4 | Cc1nc2ccc(Oc3ccc4ncc(-c5cnn(CC(=O)N6CCS(=O)(=O)CC6)c5)nc4c3Cl)cc2[nH]1 [Compound 270] | ≥ 0.4 | ≥ 0.4 | 0.02 to 0.1 |
| 0.02 to 0.1 | Cc1nc2ccc(Oc3ccc4ncc(-c5cnn(CC6CN(C)CCO6)c5)nc4c3Cl)cc2[nH]1 (stereo not drawn) [Compound 271] | 0.02 to 0.1 | ≥ 0.4 | < 0.02 |
| 0.02 to 0.1 | Cc1nc2ccc(Oc3ccc4ncc(-c5cnn(CC6CNCCO6)c5)nc4c3Cl)cc2[nH]1 (stereo not drawn) [Compound 273] | 0.02 to 0.1 | ≥ 0.4 | 0.02 to 0.1 |
| 0.02 to 0.1 | COC1CCN(C(=O)Cn2cc(-c3cnc4ccc(Oc5ccc6nc(C)[nH]c6c5)c(Cl)c4n3)cn2)C1 (stereo not drawn) [Compound 277] | 0.1 to 0.4 | ≥ 0.4 | 0.02 to 0.1 |
| < 0.02 | Cc1nc2ccc(Oc3ccc4ncc(-c5cnn(CC6CCS(=O)(=O)CC6)c5)nc4c3Br)cc2[nH]1 [Compound 279] | < 0.02 | ≥ 0.4 | < 0.02 |
| 0.02 to 0.1 | COC1CC(Cn2cc(-c3cnc4ccc(Oc5ccc6nc(C)[nH]c6c5)c(Cl)c4n3)cn2)C1 (stereo not drawn) [Compound 281] | 0.02 to 0.1 | ≥ 0.4 | 0.02 to 0.1 |
| 0.02 to 0.1 | Cc1nc2ccc(Oc3ccc4ncc(-c5cnn(CC(=O)N6CC[C@@H](F)C6)c5)nc4c3Cl)cc2[nH]1 [Compound 283] | 0.02 to 0.1 | ≥ 0.4 | 0.02 to 0.1 |
| 0.02 to 0.1 | Cc1nc2ccc(Oc3ccc4ncc(-c5cnn(CC(=O)N6CC[C@H](F)C6)c5)nc4c3Cl)cc2[nH]1 [Compound 284] | 0.02 to 0.1 | ≥ 0.4 | 0.02 to 0.1 |
